Test results: patent US20220323408A1, “COMPOSITION USED FOR COMBATING METABOLIC DISEASES AND USES OF COMPOSITION” (Institute of Zoology, Chinese Academy of Sciences, priority 2019, published 2022)

Columns and labels:
[1] = tested on: HFD (high-fat diet)-induced obesity and insulin resistance; details: C57BL/6J mice; cited from earlier work
pancreatic beta cells = details: by reducing PGE2-mediated β-cell apoptosis; cited from earlier work
[2] = tested on: diet-induced obesity (DIO) male mice; assay: Body weight change in diet-induced obesity (DIO) mice, 10 days; type: in vivo; details: 30 mg/kg A alone or 5 mg/kg B alone per day i.p.
Description: In addition, the control group and the experimental group of the present invention all adopt intraperitoneal injections in the process. The injection volume starts at 4 μl/g of body weight and can be adjusted according to the dose, in which the therapeutic agent A in the experimental group (aspirin (trade name Aspirin) is used in the following examples) is diluted in PBS to a dose between 0.3 mg/kg and 120 mg/kg of body weight, the therapeutic agent B (trimetazidine (trade name Trimetazidine) is used in the following examples) is diluted in PBS to a dose between 0.05 mg/kg and 500 mg/kg of body weight. In the control group, the same amount of the therapeutic agent A or the same amount of the therapeutic agent B alone is usually used, or only the same amount of PBS solvent is used as a blank control. Twenty 6-week-old diet-induced obesity (Jackson Lab's Diet-Induced Obese, DIO) male mice with similar physical status were selected and then divided into four groups, and the number of mice in each group was 5. […] The body weight of each mouse was recorded daily.

diabetic DIO mice [3] = assay: Body weight change in diabetic DIO mice, 4 weeks; type: in vivo; details: 30 mg/kg A alone or 5 mg/kg B alone per day
diabetic DIO mice [4] = assay: Serum indicators of hyperlipidemia, fatty liver and nitrogen metabolism in diabetic DIO mice; type: in vivo; details: 4 weeks, 30 mg/kg A and/or 5 mg/kg B per day, vs blank control group 3
Description: Subsequent tests were performed on each group of mice that had completed the treatment of Example 8. Examples 9 and 10 detected two indicators related to obesity and hyperlipidemia: total cholesterol and LDL-cholesterol; Example 11 detected alanine aminotransferase (ALT), an indicator related to fatty liver disease; and Examples 12 and 13 detected two indicators related to nitrogen metabolism: albumin/globulin ratio and total protein.

[5] = tested on: p38 and AMPK signaling pathways; assay: Western blot of in vitro human primary skeletal muscle cells over 24 hours; type: cell-based; details: 100 mg/L A and/or 2 mg/L B, single agents vs DMSO control, weaker or slower than A+B
Description: In vitro human primary skeletal muscle cells were used in the test, the cells were divided into four groups, and each group had six time points. For the experimental group, 100 mg/L of therapeutic agent A and 2 mg/L of therapeutic agent B were administered; for the control group 1, 100 mg/L of therapeutic agent A was administered; for the control group 2, 2 mg/L of therapeutic agent B was administered; and for the control group 3, the same amount of DMSO solvent was used as a blank control. The experiment was conducted 24 hours in total.

[6] = tested on: primary human skeletal muscle cells induced insulin resistance; assay: Western blot of primary human skeletal muscle cells with induced insulin resistance, 7 days; type: cell-based; details: palmitic acid + TNFα 7 days, 100 mg/L A and/or 2 mg/L B on day 4, vs control group 3; for insulin sensitivity indicator phospho-Akt / insulin sensitivity indicator phospho-S6 / myosin heavy chain (MHC): single agents comparably weak
Description: In vitro human primary skeletal muscle cells were used in the experiment, the cells were divided into six groups: for control group 1, the same amount of DMSO solvent was administered for 7 days as a blank control; for control group 2, the same amount of bovine serum albumin (BSA) was administered for 7 days as a fat solvent control; for control group 3, palmitic acid (Pal) and TNFα were administered for 7 days as a high-fat and inflammation-induced insulin resistance control; for control group 4, palmitic acid (Pal) and TNFα were administered for 7 days and 100 mg/L of therapeutic agent A was administered on day 4; for control group 5, palmitic acid (Pal) and TNFα were administered for 7 days and 2 mg/L of therapeutic agent B was administered on day 4; for the experimental group, palmitic acid (Pal) and TNFα were administered for 7 days and 100 mg/L of therapeutic agent A and 2 mg/L of therapeutic agent B were administered on day 4; afterwards, protein Western blot analysis was performed on each group of samples, as shown in FIG. 47.

[7] = LC-MS analysis of mouse serum 1 hour after administration; type: in vivo; details: mice of control group 1 (30 mg/kg A); serum 1 hour later; LC-MS vs blank control group 3
Description: Mice were grouped and administered according to the same method as in Example 8, except that serum samples from each group of mice were subjected to liquid phase mass spectrometry (LC-MS, Waters XBridge C18 column and Xevo G2-XS) analysis 1 hour later, and the most prominent small molecule markers were taken out, as shown in FIG. 51.

[8] = long-term administration (3 to 24 hours)
[9] = short-term administration (within 60 minutes)

Structure (SMILES): COc1ccc2c(c1)c(CC(=O)O)c(C)n2C(=O)c1ccc(Cl)cc1 [Indomethacin]
- HFD (high-fat diet)-induced obesity [1]: prevent
- HFD-induced insulin resistance [1]: prevent

Structure (SMILES): CS(=O)(=O)Nc1ccc([N+](=O)[O-])cc1OC1CCCCC1 [NS-398]
- β-cell dysfunction (pancreatic beta cells): reverse

Structure (SMILES): CC(=O)Oc1ccccc1C(=O)O [therapeutic agent A, aspirin]
- effect on the body weight [2]: almost no significant effect
- effect on the body weight (diabetic DIO mice [3]): almost no obvious effect
- LDL-cholesterol (diabetic DIO mice [4]): neither therapeutic agent A in control group 1 nor therapeutic agent B in control group 2 used alone was able to achieve significant therapeutic or restorative effects
- alanine aminotransferase (ALT) (diabetic DIO mice [4]): neither therapeutic agent A in control group 1 nor therapeutic agent B in control group 2 used alone was able to achieve significant therapeutic or restorative effects
- albumin/globulin ratio (diabetic DIO mice [4]): neither therapeutic agent A in control group 1 nor therapeutic agent B in control group 2 used alone was able to achieve significant therapeutic or restorative effects
- total cholesterol (diabetic DIO mice [4]): neither therapeutic agent A in control group 1 nor therapeutic agent B in control group 2 used alone was able to achieve significant therapeutic or restorative effects
- total protein (diabetic DIO mice [4]): neither therapeutic agent A in control group 1 nor therapeutic agent B in control group 2 used alone was able to achieve significant therapeutic or restorative effects
- PGC1a [5, 8]: could also down-regulate
- phospho-ACC [5, 8]: could also down-regulate
- phospho-p38 [5, 8]: could also down-regulate
- PGC1a [5, 9]: could also up-regulate
- phospho-ACC [5, 9]: could also up-regulate
- phospho-AMPK [5, 9]: could also up-regulate
- phospho-p38 [5, 9]: could also up-regulate
- cellular senescence indicator H3K9me3 [6]: can down-regulate
- insulin sensitivity indicator phospho-Akt [6]: can also up-regulate
- insulin sensitivity indicator phospho-S6 [6]: can also up-regulate
- myosin heavy chain (MHC) [6]: can also up-regulate
- formation of salicylate derivatives in serum [7]: can effectively form a variety of salicylate derivatives in serum

Structure (SMILES): COc1ccc(CN2CCNCC2)c(OC)c1OC [therapeutic agent B, trimetazidine]
- effect on the body weight [2]: almost no significant effect
- effect on the body weight (diabetic DIO mice [3]): almost no obvious effect
- LDL-cholesterol (diabetic DIO mice [4]): neither therapeutic agent A in control group 1 nor therapeutic agent B in control group 2 used alone was able to achieve significant therapeutic or restorative effects
- alanine aminotransferase (ALT) (diabetic DIO mice [4]): neither therapeutic agent A in control group 1 nor therapeutic agent B in control group 2 used alone was able to achieve significant therapeutic or restorative effects
- albumin/globulin ratio (diabetic DIO mice [4]): neither therapeutic agent A in control group 1 nor therapeutic agent B in control group 2 used alone was able to achieve significant therapeutic or restorative effects
- total cholesterol (diabetic DIO mice [4]): neither therapeutic agent A in control group 1 nor therapeutic agent B in control group 2 used alone was able to achieve significant therapeutic or restorative effects
- total protein (diabetic DIO mice [4]): neither therapeutic agent A in control group 1 nor therapeutic agent B in control group 2 used alone was able to achieve significant therapeutic or restorative effects
- PGC1a [5, 8]: could also down-regulate
- phospho-ACC [5, 8]: could also down-regulate
- phospho-p38 [5, 8]: could also down-regulate
- PGC1a [5, 9]: could also up-regulate
- phospho-ACC [5, 9]: could also up-regulate
- phospho-AMPK [5, 9]: could also up-regulate
- phospho-p38 [5, 9]: could also up-regulate
- cellular senescence indicator H3K9me3 [6]: cannot achieve the same effect
- insulin sensitivity indicator phospho-Akt [6]: can also up-regulate
- insulin sensitivity indicator phospho-S6 [6]: can also up-regulate
- myosin heavy chain (MHC) [6]: can also up-regulate
